According to patent publication US20030129629A1, “Methods and compositions for the identification, assessment, prevention, and therapy of human cancers” (Millennium Pharmaceuticals, Inc., priority 2000, published 2003):

Tested on: 60 cancer cell lines (NCI 60 cancer cell line series)
Test: NCI-DTP in vitro cancer screen, sulforhodamine B (SRB) growth inhibition, 48 hour exposure
Format: cell-based, human
Method: Cancer Cell Line Preparation. Sixty cancer cell lines were obtained from the National Cancer Institute Developmental Therapeutics Program (NCI-DTP). Procedures for growing cells and testing compounds have been described previously (Scudiero et al., Cancer Res. 1988, 48:4827-4833; Stinson et al., Anticancer Res.; Myers et al., Electrophoresis 1997, 18:647-653). Cells are plated on day 0 at a density individualized for each cell line so that they will generally be sub-confluent at the end of the assay period. On day 1, a compound is added in the format for a duplicate-well, 5-dose, ten-fold interval dose response study.
No-drug, no-cell and no-growth controls are included. On day 3 the cells are processed for staining with sulforhodamine B (SRB), which reflects the amount of cell mass present at the end of a 48 hour exposure to the test agent. From dose response curves based on the SRB data, various parameters can be determined. […] More precisely, the quantity used in the calculation to be described is the potency measure −log{GI50}.
Activity database (A). […] This subset of compounds was selected from the larger 23,000 compound database available from the DTP. The compounds were selected on the basis of their known mechanism of action and chemical structure. The average potency −log{GI50} was extracted from the comma-delimited text files available through the Web at http://www.nci.nih.gov/intra/lmp/jnwbio.html. Subsequently, these −log{GI50} values were inspected manually and classified as indicating either Low, Medium or High sensitivity to each compound.

SMILES: NC(=O)NO [Hydroxyurea]
- classification of cell line as Low(1), Medium(2), High(3) sensitivity to compound (Breast BT-549 CL5013): 1
- classification of cell line as Low(1), Medium(2), High(3) sensitivity to compound (Breast HS-578T CL5006): 2
- classification of cell line as Low(1), Medium(2), High(3) sensitivity to compound (Breast MCF7(I) CL5001): 2
- classification of cell line as Low(1), Medium(2), High(3) sensitivity to compound (Breast MCF7/ADRr CL5002): 2
- classification of cell line as Low(1), Medium(2), High(3) sensitivity to compound (Breast MDA-MB-231 CL5005): 1
- classification of cell line as Low(1), Medium(2), High(3) sensitivity to compound (Breast MDA-MB-435 CL5011): 1
- classification of cell line as Low(1), Medium(2), High(3) sensitivity to compound (Breast MDA-N CL5012): 1
- classification of cell line as Low(1), Medium(2), High(3) sensitivity to compound (Breast T-47D CL5014): 1
- classification of cell line as Low(1), Medium(2), High(3) sensitivity to compound (CNS SF-268 CL12014): 2
- classification of cell line as Low(1), Medium(2), High(3) sensitivity to compound (CNS SF-295 CL12015): 3
- classification of cell line as Low(1), Medium(2), High(3) sensitivity to compound (CNS SF-539 CL12016): 3
- classification of cell line as Low(1), Medium(2), High(3) sensitivity to compound (CNS SNB-19 CL12002): 1
- classification of cell line as Low(1), Medium(2), High(3) sensitivity to compound (CNS SNB-75(I) CL12005): 2
- classification of cell line as Low(1), Medium(2), High(3) sensitivity to compound (CNS U251(I) CL12009): 2
- classification of cell line as Low(1), Medium(2), High(3) sensitivity to compound (Colon COLO-250 CL4010): 1
- classification of cell line as Low(1), Medium(2), High(3) sensitivity to compound (Colon HCC-2998 CL4002): 2
- classification of cell line as Low(1), Medium(2), High(3) sensitivity to compound (Colon HCT-15 CL4015): 2
- classification of cell line as Low(1), Medium(2), High(3) sensitivity to compound (Colon HCT-116 CL4003): 2
- classification of cell line as Low(1), Medium(2), High(3) sensitivity to compound (Colon HT29(I) CL4001): 2
- classification of cell line as Low(1), Medium(2), High(3) sensitivity to compound (Colon KM12 CL4017): 2
- classification of cell line as Low(1), Medium(2), High(3) sensitivity to compound (Colon SW-620 CL4009): 2
- classification of cell line as Low(1), Medium(2), High(3) sensitivity to compound (Leukemia CCRF-CEM(I) CL7003): 3
- classification of cell line as Low(1), Medium(2), High(3) sensitivity to compound (Leukemia HL-60(I) CL7008): 3
- classification of cell line as Low(1), Medium(2), High(3) sensitivity to compound (Leukemia K562(I) CL7005): 2
- classification of cell line as Low(1), Medium(2), High(3) sensitivity to compound (Leukemia MOLT-4 CL7006): 3
- classification of cell line as Low(1), Medium(2), High(3) sensitivity to compound (Leukemia RPMI-8226(I) CL7010): 3
- classification of cell line as Low(1), Medium(2), High(3) sensitivity to compound (Leukemia SR CL7019): 3
- classification of cell line as Low(1), Medium(2), High(3) sensitivity to compound (Melanoma LOX IMVI CL10001): 2
- classification of cell line as Low(1), Medium(2), High(3) sensitivity to compound (Melanoma M14 CL10014): 2
- classification of cell line as Low(1), Medium(2), High(3) sensitivity to compound (Melanoma MALME-3M CL10002): 2
- classification of cell line as Low(1), Medium(2), High(3) sensitivity to compound (Melanoma SK-MEL-2 CL10005): 1
- classification of cell line as Low(1), Medium(2), High(3) sensitivity to compound (Melanoma SK-MEL-5 CL10007): 2
- classification of cell line as Low(1), Medium(2), High(3) sensitivity to compound (Melanoma SK-MEL-28 CL10008): 1
- classification of cell line as Low(1), Medium(2), High(3) sensitivity to compound (Melanoma UACC-62 CL10020): 3
- classification of cell line as Low(1), Medium(2), High(3) sensitivity to compound (Melanoma UACC-257 CL10021): 1
- classification of cell line as Low(1), Medium(2), High(3) sensitivity to compound (NSCLC A549/ATCC CL1004): 2
- classification of cell line as Low(1), Medium(2), High(3) sensitivity to compound (NSCLC EKVX CL1008): 1
- classification of cell line as Low(1), Medium(2), High(3) sensitivity to compound (NSCLC HOP-62 CL1026): 2
- classification of cell line as Low(1), Medium(2), High(3) sensitivity to compound (NSCLC HOP-92 CL1029): 2
- sensitivity classification Low(1)/Medium(2)/High(3) (NSCLC NCI-H23(I) CL1001): 2
- classification of cell line as Low(1), Medium(2), High(3) sensitivity to compound (NSCLC NCI-H226 CL1013): 2
- sensitivity classification Low(1)/Medium(2)/High(3) (NSCLC NCI-H332M CL1017): 1
- sensitivity classification Low(1)/Medium(2)/High(3) (NSCLC NCI-H460 CL1021): 3
- sensitivity classification Low(1)/Medium(2)/High(3) (NSCLC NCI-H522 CL1003): 2
- sensitivity classification Low(1)/Medium(2)/High(3) (Ovarian IGROV1 CL6010): 2
- sensitivity classification Low(1)/Medium(2)/High(3) (Ovarian OVCAR-3 CL6001): 2
- sensitivity classification Low(1)/Medium(2)/High(3) (Ovarian OVCAR-4 CL6002): 1
- sensitivity classification Low(1)/Medium(2)/High(3) (Ovarian OVCAR-5 CL6003): 2
- sensitivity classification Low(1)/Medium(2)/High(3) (Ovarian OVCAR-8 CL6005): 2
- sensitivity classification Low(1)/Medium(2)/High(3) (Ovarian SK-OV-3 CL6011): 1
- sensitivity classification Low(1)/Medium(2)/High(3) (Prostate DU-145 CL11003): 2
- sensitivity classification Low(1)/Medium(2)/High(3) (Prostate PC-3(I) CL11001): 2
- sensitivity classification Low(1)/Medium(2)/High(3) (Renal 786-0 CL9018): 2
- sensitivity classification Low(1)/Medium(2)/High(3) (Renal A498 CL9013): 2
- sensitivity classification Low(1)/Medium(2)/High(3) (Renal ACHN CL9023): 3
- sensitivity classification Low(1)/Medium(2)/High(3) (Renal CAKI-1 CL9015): 3
- sensitivity classification Low(1)/Medium(2)/High(3) (Renal RXF-393 CL9016): 2
- sensitivity classification Low(1)/Medium(2)/High(3) (Renal SN12C CL9008): 2
- sensitivity classification Low(1)/Medium(2)/High(3) (Renal TK10 CL9024): 1
- sensitivity classification Low(1)/Medium(2)/High(3) (Renal UO-31 CL9004): 2
